pIC50, pKi: −log10 of the molar value.
What was measured:
[1] = biological target: T1, Neutrophil elastase (Homo sapiens, UniProt P08246); assay type: tissue-based;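 note: inhibition of neutrophil elastase enzyme activity, measured with a p-nitroanilide-linked peptide substrate; in other assays of this panel Not Active means under 50% inhibition at 10 µM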
T1 sequence (P08246 whole entry): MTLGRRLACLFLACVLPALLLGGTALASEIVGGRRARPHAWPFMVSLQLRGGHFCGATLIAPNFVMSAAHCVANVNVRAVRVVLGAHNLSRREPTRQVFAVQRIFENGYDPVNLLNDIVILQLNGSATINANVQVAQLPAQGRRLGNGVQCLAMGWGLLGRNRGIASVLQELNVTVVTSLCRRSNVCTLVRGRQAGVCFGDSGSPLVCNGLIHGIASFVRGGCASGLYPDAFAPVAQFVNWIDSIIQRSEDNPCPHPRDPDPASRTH

[2] = biological target: T2, Adenosine receptor A1 (Homo sapiens, UniProt P30542); assay type: cell membranes, Membrane; conditions: cho;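 note: radioligand binding assay at the adenosine A1 receptor, with DPCPX serving as the labelled ligand; in other assays of this panel Not Active means under 50% inhibition at 10 µM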
T2 sequence (P30542 whole entry): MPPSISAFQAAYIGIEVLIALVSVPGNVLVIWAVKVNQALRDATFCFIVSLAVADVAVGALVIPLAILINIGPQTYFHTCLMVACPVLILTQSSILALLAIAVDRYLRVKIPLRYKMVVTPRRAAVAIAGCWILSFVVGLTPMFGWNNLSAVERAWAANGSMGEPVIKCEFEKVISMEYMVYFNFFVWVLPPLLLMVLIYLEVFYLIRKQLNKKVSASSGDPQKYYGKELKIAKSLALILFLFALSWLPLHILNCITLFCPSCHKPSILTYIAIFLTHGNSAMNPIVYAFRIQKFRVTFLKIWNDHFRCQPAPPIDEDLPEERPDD

[3] = biological target: T3, Muscarinic acetylcholine receptor M5 (Homo sapiens, UniProt P08912); assay type: cell membranes, CHO-K1, Membrane; conditions: for IC50: cho-k1; for all read-outs here: in other assays of this panel Not Active means under 50% inhibition at 10 µM
T3 sequence (P08912 whole entry): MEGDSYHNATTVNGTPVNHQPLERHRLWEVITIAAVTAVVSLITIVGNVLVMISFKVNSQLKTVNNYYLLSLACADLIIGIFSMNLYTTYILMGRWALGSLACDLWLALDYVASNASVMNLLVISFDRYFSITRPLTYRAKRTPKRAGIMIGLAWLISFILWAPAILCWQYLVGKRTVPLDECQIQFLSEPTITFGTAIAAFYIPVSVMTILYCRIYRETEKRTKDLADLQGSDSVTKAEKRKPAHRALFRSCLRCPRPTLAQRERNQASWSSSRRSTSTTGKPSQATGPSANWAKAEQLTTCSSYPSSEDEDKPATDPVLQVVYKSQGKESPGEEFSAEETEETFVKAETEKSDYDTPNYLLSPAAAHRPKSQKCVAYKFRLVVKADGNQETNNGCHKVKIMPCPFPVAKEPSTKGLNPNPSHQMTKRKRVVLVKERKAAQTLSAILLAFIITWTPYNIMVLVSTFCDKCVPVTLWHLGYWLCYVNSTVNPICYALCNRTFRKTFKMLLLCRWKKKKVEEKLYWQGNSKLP

[4] = DRUGMATRIX: GABAA, Muscimol, Central radioligand binding (ligand: [3H] Muscimol); assay type: cell membranes, Rattus norvegicus, Wistar, Brain, Membrane; conditions: Not Active = under 50% inhibition at 10 µM
[5] = DRUGMATRIX: Leukotriene, BLT (LTB4) radioligand binding (ligand: [3H]LTB4); assay type: cell membranes, Membrane; conditions: u-937; Not Active = under 50% inhibition at 10 µM
[6] = biological target: T4, Alpha-1D adrenergic receptor (Homo sapiens, UniProt P25100); assay type: cell membranes, HEK293, Membrane; conditions: for IC50: hek293; for pIC50: read-out: IC50; for pKi: read-out: Ki; for all read-outs here: in other assays of this panel Not Active means under 50% inhibition at 10 µM
T4 sequence (P25100 whole entry): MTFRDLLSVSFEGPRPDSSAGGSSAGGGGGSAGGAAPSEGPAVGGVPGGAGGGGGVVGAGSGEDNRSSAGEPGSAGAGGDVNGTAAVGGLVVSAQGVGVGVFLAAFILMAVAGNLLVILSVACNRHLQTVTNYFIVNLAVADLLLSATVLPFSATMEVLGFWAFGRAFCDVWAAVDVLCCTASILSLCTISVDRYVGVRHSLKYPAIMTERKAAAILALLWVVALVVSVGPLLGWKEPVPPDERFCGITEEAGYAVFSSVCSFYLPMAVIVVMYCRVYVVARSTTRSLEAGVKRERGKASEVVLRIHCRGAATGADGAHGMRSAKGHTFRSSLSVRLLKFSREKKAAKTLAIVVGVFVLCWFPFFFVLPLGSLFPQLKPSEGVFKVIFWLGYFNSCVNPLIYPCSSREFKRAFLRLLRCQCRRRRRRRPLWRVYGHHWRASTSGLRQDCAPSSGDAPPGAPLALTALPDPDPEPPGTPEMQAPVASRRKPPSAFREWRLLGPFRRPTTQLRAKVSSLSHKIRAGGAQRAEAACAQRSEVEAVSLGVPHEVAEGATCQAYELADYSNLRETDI

[7] = biological target: Delta-type opioid receptor (Homo sapiens, UniProt P41143); assay type: cell membranes, HEK293, Membrane; conditions: for IC50: hek293
[8] = biological target: Cytochrome P450 2E1 (Homo sapiens, UniProt P05181); conditions: bti-tn-5b1-4; note: in other assays of this panel Not Active means under 50% inhibition at 10 µM
[9] = biological target: Mu-type opioid receptor (Homo sapiens, UniProt P35372); experiment: DRUGMATRIX: Opiate mu (OP3, MOP) radioligand binding (ligand: [3H] Diprenorphine); assay type: cell membranes, CHO-K1, Membrane; conditions: cho-k1; Not Active = under 50% inhibition at 10 µM
[10] = biological target: Voltage-gated inwardly rectifying potassium channel KCNH2 (Homo sapiens, UniProt Q12809); conditions: hek293; note: in other assays of this panel Not Active means under 50% inhibition at 10 µM
Chain of Voltage-gated inwardly rectifying potassium channel KCNH2 (Q12809 whole entry): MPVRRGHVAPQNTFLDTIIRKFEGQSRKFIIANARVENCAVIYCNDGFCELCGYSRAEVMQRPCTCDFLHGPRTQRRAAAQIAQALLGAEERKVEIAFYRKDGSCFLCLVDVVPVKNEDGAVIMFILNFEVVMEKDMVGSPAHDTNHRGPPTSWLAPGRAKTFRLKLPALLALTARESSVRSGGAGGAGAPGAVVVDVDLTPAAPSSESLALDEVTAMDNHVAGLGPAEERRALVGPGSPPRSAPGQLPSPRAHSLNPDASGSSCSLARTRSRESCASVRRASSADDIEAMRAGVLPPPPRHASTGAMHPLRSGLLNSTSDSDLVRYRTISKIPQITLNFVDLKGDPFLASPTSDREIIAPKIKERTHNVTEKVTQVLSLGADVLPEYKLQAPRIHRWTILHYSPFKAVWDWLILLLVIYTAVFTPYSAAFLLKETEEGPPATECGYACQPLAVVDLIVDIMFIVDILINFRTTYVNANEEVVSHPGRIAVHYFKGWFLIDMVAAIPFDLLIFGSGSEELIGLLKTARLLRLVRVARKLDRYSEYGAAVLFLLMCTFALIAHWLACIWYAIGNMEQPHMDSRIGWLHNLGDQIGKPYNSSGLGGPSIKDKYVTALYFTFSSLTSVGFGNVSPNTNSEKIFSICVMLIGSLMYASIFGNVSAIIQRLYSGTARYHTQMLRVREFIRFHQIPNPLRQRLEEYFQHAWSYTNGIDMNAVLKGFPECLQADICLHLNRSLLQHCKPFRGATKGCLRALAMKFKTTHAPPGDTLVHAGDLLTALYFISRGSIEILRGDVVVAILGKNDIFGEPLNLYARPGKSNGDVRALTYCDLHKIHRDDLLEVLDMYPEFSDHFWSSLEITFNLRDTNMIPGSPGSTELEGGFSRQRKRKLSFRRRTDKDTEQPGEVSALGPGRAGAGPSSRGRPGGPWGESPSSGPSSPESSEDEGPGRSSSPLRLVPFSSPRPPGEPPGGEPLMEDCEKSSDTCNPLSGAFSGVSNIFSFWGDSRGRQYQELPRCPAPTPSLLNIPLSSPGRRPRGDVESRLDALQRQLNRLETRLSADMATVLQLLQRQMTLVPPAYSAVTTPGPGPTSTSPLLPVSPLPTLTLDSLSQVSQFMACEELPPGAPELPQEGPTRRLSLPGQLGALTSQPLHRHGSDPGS

Chain of Mu-type opioid receptor (P35372 whole entry): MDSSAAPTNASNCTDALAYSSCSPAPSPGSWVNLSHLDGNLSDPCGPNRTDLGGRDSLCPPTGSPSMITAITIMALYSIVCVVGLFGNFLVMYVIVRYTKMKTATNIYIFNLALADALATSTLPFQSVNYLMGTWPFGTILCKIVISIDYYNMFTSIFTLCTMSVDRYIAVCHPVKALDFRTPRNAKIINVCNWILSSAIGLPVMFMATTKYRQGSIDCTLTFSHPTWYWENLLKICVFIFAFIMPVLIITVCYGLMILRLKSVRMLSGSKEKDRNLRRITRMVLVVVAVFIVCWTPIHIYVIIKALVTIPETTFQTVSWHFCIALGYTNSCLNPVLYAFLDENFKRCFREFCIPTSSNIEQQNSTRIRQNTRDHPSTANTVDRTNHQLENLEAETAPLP
Chain of Delta-type opioid receptor (P41143 whole entry): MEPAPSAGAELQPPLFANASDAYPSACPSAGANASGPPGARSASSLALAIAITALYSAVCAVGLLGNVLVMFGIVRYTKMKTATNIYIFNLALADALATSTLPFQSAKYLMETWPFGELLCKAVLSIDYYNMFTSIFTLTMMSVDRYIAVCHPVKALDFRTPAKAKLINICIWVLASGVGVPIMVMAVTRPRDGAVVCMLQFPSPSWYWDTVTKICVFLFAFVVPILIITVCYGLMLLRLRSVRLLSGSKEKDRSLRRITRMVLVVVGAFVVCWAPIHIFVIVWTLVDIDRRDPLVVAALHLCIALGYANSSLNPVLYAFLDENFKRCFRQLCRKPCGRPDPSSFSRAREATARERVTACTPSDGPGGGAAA
Chain of Cytochrome P450 2E1 (P05181 whole entry): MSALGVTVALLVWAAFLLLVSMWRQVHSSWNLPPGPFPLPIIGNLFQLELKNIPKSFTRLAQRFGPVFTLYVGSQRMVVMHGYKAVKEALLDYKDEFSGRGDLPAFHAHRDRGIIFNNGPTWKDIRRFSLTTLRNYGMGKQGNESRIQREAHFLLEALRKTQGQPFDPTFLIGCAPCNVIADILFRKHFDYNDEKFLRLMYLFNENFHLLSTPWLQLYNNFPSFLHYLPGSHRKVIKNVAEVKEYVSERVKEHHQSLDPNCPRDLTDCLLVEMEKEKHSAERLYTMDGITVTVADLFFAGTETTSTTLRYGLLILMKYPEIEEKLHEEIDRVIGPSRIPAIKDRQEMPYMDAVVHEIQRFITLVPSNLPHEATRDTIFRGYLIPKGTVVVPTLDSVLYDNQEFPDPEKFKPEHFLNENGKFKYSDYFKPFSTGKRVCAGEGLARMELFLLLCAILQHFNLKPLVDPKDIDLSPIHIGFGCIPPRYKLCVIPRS

SMILES	IC50 [1]	IC50 [2]	IC50 [3]	IC50 [4]	Ki [4]	IC50 [5]	Ki [5]	IC50 [6]	IC50 [7]	IC50 [8]	Ki [8]	IC50 [9]	IC50 [10]	Ki [10]	pIC50 [6]	pKi [6]	pIC50 ([3]; read-out: IC50)	pKi ([3]; read-out: Ki)	pIC50 ([7]; read-out: IC50)	pKi ([7]; read-out: Ki)
CC1=C(CC(=O)O)c2cc(F)ccc2/C1=C\c1ccc([S+](C)[O-])cc1 (configuration not stated)	Not Active	Not Active	Not Active	Not Active	Not Active	Not Active	Not Active	Not Active	Not Active	Not Active	Not Active	Not Active	Not Active	Not Active						
N[C@H](CSC(=S)NCc1ccccc1)C(=O)O	Not Active	Not Active	Not Active	Not Active	Not Active	Not Active	Not Active	Not Active	Not Active	Not Active	Not Active	Not Active	Not Active	Not Active						
CC(=O)N[C@@H]1[C@H](Oc2c3cc4cc2Oc2ccc(cc2Cl)[C@@H](O[C@@H]2O[C@@H](CO)[C@@H](O)[C@H](O)[C@@H]2NC(C)=O)[C@@H]2NC(=O)[C@H](NC(=O)[C@@H]4NC(=O)[C@H]4NC(=O)[C@@H](Cc5ccc(c(Cl)c5)O3)NC(=O)[C@H](N)c3ccc(O)c(c3)Oc3cc(O)cc4c3)c3ccc(O)c(c3)-c3c(O[C@H]4O[C@H](CO)[C@@H](O)[C@@H](O)[C@@H]4O)cc(O)cc3[C@@H](C(=O)O)NC2=O)O[C@@H](CO)[C@@H](O)[C@@H]1O	Not Active	Not Active	Not Active	Not Active	Not Active	Not Active	Not Active	Not Active	Not Active	Not Active	Not Active	Not Active	Not Active	Not Active						
Clc1ccc2c(c1)C(N1CCNCC1)=Nc1ccccc1O2 [AMOXAPINE]	Not Active	Not Active							Not Active	Not Active	Not Active	Not Active	Not Active	Not Active	6.51	6.82				
COc1cc2c(c(OC)c1OC)-c1ccc(OC)c(=O)cc1[C@@H](NC(C)=O)CC2 [COLCHICINE]	Not Active	Not Active	Not Active					Not Active	Not Active	Not Active	Not Active		Not Active	Not Active						
CN1CCC(=C2c3ccccc3C=Cc3ccccc32)CC1 [CYPROHEPTADINE]	Not Active	Not Active							Not Active	Not Active	Not Active	Not Active			6.97	7.28	8.42	8.56		
CC/C(=C(/CC)c1ccc(O)cc1)c1ccc(O)cc1 [DIETHYLSTILBESTROL]	Not Active									Not Active	Not Active		Not Active	Not Active	4.97	5.27				
CC(=O)N1CCN(c2ccc(OCC3COC(Cn4ccnc4)(c4ccc(Cl)cc4Cl)O3)cc2)CC1 (configuration not stated) [KETOCONAZOLE]	Not Active	Not Active	Not Active	Not Active	Not Active	Not Active	Not Active	Not Active		Not Active	Not Active	Not Active							4.89	5.35
C=CCN1CC[C@]23c4c5ccc(O)c4O[C@H]2C(=O)CC[C@@]3(O)[C@H]1C5 [NALOXONE]	Not Active	Not Active	Not Active					Not Active					Not Active	Not Active						
COCCOC(=O)C1=C(C)NC(C)=C(C(=O)OC(C)C)C1c1cccc([N+](=O)[O-])c1 (configuration not stated) [NIMODIPINE]	Not Active	Not Active	Not Active	Not Active	Not Active	Not Active	Not Active	Not Active	Not Active			Not Active	Not Active	Not Active						
CC(C)NCC(O)COc1cccc2ccccc12 (configuration not stated) [PROPRANOLOL]	Not Active	Not Active	Not Active					Not Active	Not Active	Not Active	Not Active	Not Active	Not Active	Not Active						
COCCCOc1ccnc(C[S+]([O-])c2nc3ccccc3[nH]2)c1C (configuration not stated) [RABEPRAZOLE]	Not Active	Not Active	Not Active	Not Active	Not Active	Not Active	Not Active	Not Active	Not Active	Not Active	Not Active	Not Active	Not Active	Not Active						
O=C(c1ccc(OCCN2CCCCC2)cc1)c1c(-c2ccc(O)cc2)sc2cc(O)ccc12 [RALOXIFENE]	Not Active	Not Active	Not Active	Not Active	Not Active	Not Active	Not Active			Not Active	Not Active		Not Active	Not Active	6.01	6.32				
CC(C)c1nc(CN(C)C(=O)N[C@H](C(=O)N[C@@H](Cc2ccccc2)C[C@H](O)[C@H](Cc2ccccc2)NC(=O)OCc2cncs2)C(C)C)cs1 [RITONAVIR]	Not Active	Not Active	Not Active	Not Active	Not Active	Not Active	Not Active	Not Active	Not Active											
CC(C)(C)c1ccc(C(O)CCCN2CCC(C(O)(c3ccccc3)c3ccccc3)CC2)cc1 (configuration not stated) [TERFENADINE]	Not Active	Not Active	Not Active	Not Active	Not Active	Not Active	Not Active	Not Active	Not Active	Not Active	Not Active	Not Active								
CC(=O)CC(c1ccccc1)c1c(O)c2ccccc2oc1=O (configuration not stated) [WARFARIN]	Not Active	Not Active	Not Active	Not Active	Not Active	Not Active	Not Active	Not Active	Not Active	Not Active	Not Active		Not Active	Not Active						
C[C@@H](N)[C@H]1CC[C@H](C(=O)Nc2ccncc2)CC1 [Y-27632]	Not Active	Not Active	Not Active	Not Active	Not Active	Not Active	Not Active	Not Active	Not Active	Not Active	Not Active	Not Active								

From ChEMBL document CHEMBL1909046, “DrugMatrix in vitro pharmacology data”
